Reference: patent US6828475B1, “Nucleic acid sequences encoding a plant cytoplasmic protein involved in fatty acyl-CoA metabolism” (Calgene LLC, priority 1994, dated 2004)

Legend:
[1] = test system: jojoba wax synthase; experiment: Wax synthase assay in jojoba microsomal membrane fraction; format: biochemical; settings: for Wax synthase Activity, Acyl Group: 80 μM acyl-CoA substrate, 100 μM radiolabeled oleyl alcohol; for Wax synthase Activity, Acyl Group / Wax synthase Activity, Alcohol Group: microsomal membrane fraction; for Wax synthase Activity, Alcohol Group: 100 μM alcohol substrate, 40 μM radiolabeled eicosenoyl-CoA
Procedure: Wax synthase activity in a microsomal membrane preparation is measured by incubation of 40 μM [1-^14C] acyl-CoA (usually palmitoyl-CoA, sp. act. 5.1-5.6 mCi/mmol) and 200 μM oleyl alcohol with the sample to be assayed in a total volume of 0.25 ml. The incubation mixture also contains 20% w/v glycerol, 1 mM DTT, 0.5M NaCl and is buffered with 25 mM HEPES (4-[2-hydroxyethyl]-1-piperazineethane-sulfonic acid). HEPES, here and as referred to hereafter is added from a 1M stock solution adjusted to pH 7.5.
A substrate mixture is prepared in a glass vial, with oleyl alcohol being added immediately before use, and is added to samples. Incubation is carried out at 30° C. for one hour. The assay is terminated by placing the assay tube on ice and immediately adding 0.25 ml isopropanol:acetic acid (4:1 v/v). Unlabeled wax esters (0.1 mg) and oleyl alcohol (0.1 mg) are added as carriers. The [^14C] lipids are extracted by the scaled-down protocol of Hara and Radin (Anal. Biochem. (1978) 90:420). Four ml of hexane/isopropanol (3:2, v/v) is added to the terminated assay. The sample is vortexed, 2 ml of aqueous sodium sulphate solution (6.6% w/v) is added, and the sample is again vortexed.
1. Extensive Analysis: Following addition of the sodium sulphate and vortexing the sample, the upper organic phase is removed and the lower aqueous phase is washed with 4 ml hexane/isopropanol (7:2 v/v). The organic phases are pooled and evaporated to dryness under nitrogen. The lipid residue is resuspended in a small volume of hexane, and an aliquot is assayed for radioactivity by liquid scintillation counting. The remainder of the sample can be used for TLC analysis of the labeled classes and thereby give a measure of total wax produced.
For lipid class analysis the sample is applied to a silica TLC plate, and the plate is developed in hexane/diethyl ether/acetic acid (80:20:1 v/v/v). The distribution of radioactivity between the lipid classes, largely wax esters, free fatty acids, fatty alcohols, and polar lipids at the origin, is measured using an AMBIS radioanalytic imaging system (AMBIS Systems Inc., San Diego, Calif.). If necessary the individual lipid classes can be recovered from the TLC plate for further analysis. Reversed-phase TLC systems using C18 plates developed in methanol have also been used for the analysis.
2. Quick Analysis: Following addition of the sodium sulfate and vortexing the sample, a known percentage of the organic phase is removed and counted via liquid scintillation counting. This calculation is used to estimate the total counts in the organic phase. Another portion of the organic phase is then removed, dryed down under nitrogen, redissolved in hexane and spotted on TLC plates and developed and scanned as described for the detailed assay. In this manner the percentage of the total counts which are incorporated into wax is determined.
Acyl-CoA and alcohol substrates having varying carbon chain lengths and degrees of unsaturation were added to a microsomal membrane fraction having wax synthase activity to determine the range of substrates recognized by the jojoba wax synthase. Wax synthase activity was measured as described in Example 1, with acyl specificity measured using 80 μM of acyl-CoA substrate and 100 μM of radiolabeled oleyl alcohol. Alcohol specificity was measured using 100 μM of alcohol substrate and 40 μM of radiolabeled eicosenoyl-CoA.

[2] = test system: NADH-dependent fatty acyl-CoA reductase; experiment: NADH-dependent fatty acyl-CoA reductase assay, solubilized microsomal membranes; format: biochemical, Euglena gracilis; settings: in the assay at levels above the CMC (approximately 0.5% (w/v))
Procedure: For example, an NADH-dependent fatty acyl-CoA reductase activity can be obtained from microsomal membranes isolated from Euglena gracilis. Methods which may be used to isolate microsomal membranes are described, for example in the published PCT patent application WO 92/14816 (application number PCT/US92/03164, filed Feb. 21, 1992). The reductase activity is solubilized from these membranes using the same approaches as used for jojoba reductase and wax synthase. Membranes are incubated on ice for one hour with various amounts of the detergent, CHAPS, in a buffering solution consisting of 25 mM BisTris, pH 6.9, 250 mM NaCl, 10% glycerol and 1 mM EDTA. The sample is then centrifuged at 200,000×g for one hour, and the supernatant and pellet fractions assayed for NADH-dependent reductase activity using radiolabeled palmitoyl-CoA and NADH as substrates. A convenient assay for reductase activity is described in PCT patent application WO 92/14816. Incubation of the membranes with 0.3, 0.5 or 0.7 % (w/v) CHAPS results in retention of reductase activity in the supernatant fractions, indicative of solubilization of the enzyme. If CHAPS is omitted during the incubation and centrifugation, all of the reductase activity is found in the pellet fraction. All of the samples are diluted ten-fold in this same buffer solution prior to assaying in order to dilute the CHAPS present during the incubation.

[3] = biological target: palmitoyl-ACP

Compound	Wax synthase Activity, Acyl Group [1]	Wax synthase Activity, Alcohol Group [1]	also measured
NC(=O)CI [Iodoacetamide]	–	–	effect of sulphydryl agents on wax synthase activity (inhibition) [1]: much less effective
CCCCCCCCCCCC(=O)SCCNC(=O)CCNC(=O)[C@H](O)C(C)(C)COP(=O)(O)OP(=O)(O)OC[C@H]1O[C@@H](n2cnc3c(N)ncnc32)[C@H](O)[C@@H]1OP(=O)(O)O [12:0]	12 pmol/min	100 pmol/min	–
O=C(O)c1cc[c]([Hg][OH])cc1 [para-hydroxymercuribenzoate]	–	–	effect of sulphydryl agents on wax synthase activity (inhibition) [1]: Inhibition; reversal of inhibition of wax synthase activity ([1]; subsequent addition of DTT): could be reversed
CCCCCCCCCCCCCCCC(=O)SCCNC(=O)CCNC(=O)[C@H](O)C(C)(C)COP(=O)(O)OP(=O)(O)OC[C@H]1O[C@@H](n2cnc3c(N)ncnc32)[C@H](O)[C@@H]1OP(=O)(O)O [16:0]	81 pmol/min	107 pmol/min	–
CCNC(=O)/C=C\C(N)=O [N-ethylmaleamide]	–	–	effect of sulphydryl agents on wax synthase activity (inhibition) [1]: much less effective
CCCCCCCCCCCCCC(=O)SCCNC(=O)CCNC(=O)[C@H](O)C(C)(C)COP(=O)(O)OP(=O)(O)OC[C@H]1O[C@@H](n2cnc3c(N)ncnc32)[C@H](O)[C@@H]1OP(=O)(O)O [14:0]	95 pmol/min	145 pmol/min	–
C[C@H](CCC(=O)NCCC[N+](C)(C)CCCS(=O)(=O)[O-])[C@H]1CC[C@H]2[C@@H]3[C@H](O)C[C@@H]4C[C@H](O)CC[C@]4(C)[C@H]3C[C@H](O)[C@]12C [CHAPS, 3-[(3-cholamidopropyl)-dimethyl-ammonio]-1-propanesulfonate]	–	–	effect on reductase enzyme activity [2]: inhibition of enzyme activity
CCCCCCCCCCCCCCCC(=O)SCCNC(=O)CCNC(=O)[C@H](O)C(C)(C)COP(=O)(O)OP(=O)(O)OC[C@H]1O[C@@H](n2cnc3c(N)ncnc32)[C@H](O)[C@@H]1OP(=O)(O)O [palmitoyl-CoA]	–	–	wax synthase activity towards acyl-thioester substrates ([1]; as acyl substrate): greatest activity
palmitoyl-ACP	–	–	wax synthase activity relative to acyl-CoA ([1]; as acyl substrate): ~10 % of that with acyl-CoA
CCCCCCCCCCCCCCCCCCCCCC(=O)SCCNC(=O)CCNC(=O)[C@H](O)C(C)(C)COP(=O)(O)OP(=O)(O)OC[C@H]1O[C@@H](n2cnc3c(N)ncnc32)[C@H](O)[C@@H]1OP(=O)(O)O [22:0]	46 pmol/min	17 pmol/min	–
CCCCCCCCCCCCCCCCCCCC(=O)SCCNC(=O)CCNC(=O)[C@H](O)C(C)(C)COP(=O)(O)OP(=O)(O)OC[C@H]1O[C@@H](n2cnc3c(N)ncnc32)[C@H](O)[C@@H]1OP(=O)(O)O [20:0]	49 pmol/min	21 pmol/min	–
jojoba wax synthase (microsomal membrane fraction having wax synthase activity) (pool or library)	–	–	wax synthase activity (% of that with acyl-CoA) [3]: 10
CCCCCCCCCCCCCCCCCC(=O)SCCNC(=O)CCNC(=O)[C@H](O)C(C)(C)COP(=O)(O)OP(=O)(O)OC[C@H]1O[C@@H](n2cnc3c(N)ncnc32)[C@H](O)[C@@H]1OP(=O)(O)O [18:0]	51 pmol/min	56 pmol/min	–
CCCCCCCCCCCCCCCC(=O)SCCNC(C)=O [N-acetyl-S-palmitoyl cysteamine]	–	–	wax synthase activity towards acyl-thioester substrates ([1]; as acyl substrate): no activity was detectable
